# Data as given in patent US11219598B2, “Ophthalmic drug sustained release device” (PUBLIC UNIVERSITY CORPORATION NAGOYA CITY UNIVERSITY, priority 2016, dated 2022).
# Experiment: Drug release test of solid fluorescein sodium-enclosed PMMA hollow device filled with SF6 gas after transplantation into rabbit
# Format: in vivo
# Conditions: fluorescence intensity meter, after initial burst, from the first week
# Experimental: In order to prepare a hollow device made of a polymethyl methacrylate (PMMA) resin as an acrylic resin having low oxygen permeability, outer edge portions of optical parts of two PMMA intraocular lenses were bonded with an adhesive, as a trial model. The cavity volume was calculated to be 11.3 μL. One opening part was made without using an adhesive (arrow) (FIG. 3(A), and FIG. 4). In order to examine the drug release property, a 10% aqueous solution of sodium fluorescein as a low-molecular-weight water-soluble fluorescent dye was filled in the cavity of the PMMA hollow device and air-dried (FIG. 3(B)). The solid fluorescein sodium-enclosed PMMA hollow device was placed in 100% SF6 gas, and its hollow portion was filled with the gas (FIG. 3(B)). After a rabbit was anesthetized by intramuscular injection of Ketalar and Selactar, the pupil of the right eye was dilated with a […] hydrochloride ophthalmic solution (Mydrin-P (registered trademark), Santen Pharmaceutical Co., Ltd.). […] The residual amount of gas was measured from the photograph of the anterior ocular segment and the content of fluorescein sodium in the anterior chamber water sample was measured with a fluorescence intensity meter. […]
smiles,measurement,value
"O=C1OC2(c3ccc(O)cc3Oc3cc(O)ccc32)c2ccccc21 [fluorescein sodium, sodium fluorescein]",drug release profile (fluorescein sodium content in anterior chamber water),stable sustained release
